Experimental data taken from ChEMBL document CHEMBL3045265, “Synthesis and Fungicidal Activity of 2-Alkoxyimino-2-cyanoacetamide Derivatives” (1998).

Assays:
Format in all cases: functional
[1] = test system: Pseudoperonospora cubensis; test: Fungicidal activity against Pseudoperonospora cubensis in cucumber plant assessed as cucumber downy mildew disease control at 500 ppm at 22 +/- 2 degC, 98% RH measured after 10 days
[2] = test system: Pseudoperonospora cubensis; test: Fungicidal activity against Pseudoperonospora cubensis in cucumber plant assessed as cucumber downy mildew disease control at 31.3 ppm at 22 +/- 2 degC, 98% RH measured after 10 days
[3] = test system: Pseudoperonospora cubensis; test: Fungicidal activity against Pseudoperonospora cubensis in cucumber plant assessed as cucumber downy mildew disease control at 125 ppm at 22 +/- 2 degC, 98% RH measured after 10 days
[4] = test system: Pseudoperonospora cubensis; test: Fungicidal activity against Pseudoperonospora cubensis in cucumber plant assessed as cucumber downy mildew disease control at 7.8 ppm at 22 +/- 2 degC, 98% RH measured after 10 days

| SMILES | Activity [1] | Activity [3] | further results |
| --- | --- | --- | --- |
| CO/N=C(\C#N)C(=O)Nc1nnc(C)s1 | <70% |  |  |
| C=CC1CC(NC(=O)/C(C#N)=N/OC)=NO1 (stereo unspecified) | <70% |  | Activity [2]: 70% |
| CCC1CC(NC(=O)/C(C#N)=N/OC)=NO1 (stereo unspecified) |  | 70% |  |
| CO/N=C(\C#N)C(=O)NC1=NOCC1C (stereo unspecified) |  | 70% |  |
| CO/N=C(\C#N)C(=O)Nc1cc(C)on1 |  | 70% |  |
| CCO/N=C(\C#N)C(=O)NC1=NOC(C)(C)C1 |  |  | Activity [2]: 70% |
| CO/N=C(\C#N)C(=O)NC(=O)OCC(C)(C)C(=O)OC | <70% |  |  |
| CC(C)O/N=C(\C#N)C(=O)NC1=NOC(C)(C)C1 |  |  | Activity [2]: 70% |
| CCN(C(=O)/C(C#N)=N/OC)C1=NOC(C)(C)C1 | <70% |  |  |
| CO/N=C(\C#N)C(=O)N(CC(=O)OC)C1=NOC(C)(C)C1 | <70% |  |  |
| CO/N=C(\C#N)C(=O)NC(=O)NNS(=O)(=O)c1ccccc1 | <70% |  |  |
| CCC1(C)CC(NC(=O)/C(C#N)=N/OC)=NO1 (stereo unspecified) |  | 70% |  |
| CO/N=C(\C#N)C(=O)NC(=O)OC(C)C |  | 70% |  |
| CCC1ON=C(NC(=O)/C(C#N)=N/OC)C1CC (stereo unspecified) | 70% |  |  |
| CO/N=C(\C#N)C(=O)NC1=NOC(C)(C)C1C (stereo unspecified) | 70% |  |  |
| CO/N=C(\C#N)C(=O)NC1=NOC(CCl)(CCl)C1 |  | 70% |  |
| CO/N=C(\C#N)C(=O)NC1=NOC(C)C1C (stereo unspecified) |  | 70% |  |
| CCC1(CC)CC(NC(=O)/C(C#N)=N/OC)=NO1 |  | 70% |  |
| CCOC(=O)NNC(=O)NC(=O)/C(C#N)=N/OC | <70% |  |  |
| COCN(C(=O)/C(C#N)=N/OC)C1=NOC(C)(C)C1 | <70% |  |  |
| CO/N=C(\C#N)C(=O)NC1=NOC(C2CCCCC2)C1 (stereo unspecified) | <70% |  |  |
| CO/N=C(\C#N)C(=O)NC1=NOCC1 |  | 70% |  |
| CO/N=C(\C#N)C(=O)NC(=O)OC(C)(C)C(=O)OC | 70% |  |  |

| SMILES | Activity [1] | Activity [3] | further results |
| --- | --- | --- | --- |
| CO/N=C(\C#N)C(=O)NC(=O)OCC(=O)N(C)c1ccccc1 | <70% |  |  |
| CO/N=C(\C#N)C(=O)NC1=NOC(C)(CO)C1 (stereo unspecified) |  |  | Activity [2]: 70% |
| CCCC1(C)CC(NC(=O)/C(C#N)=N/OC)=NO1 (stereo unspecified) |  | 70% |  |
| CO/N=C(\C#N)C(=O)NC1=NOC(C)C1 (stereo unspecified) |  |  | Activity [2]: 70% |
| CO/N=C(\C#N)C(=O)NC1=NOC(C(C)C)C1 (stereo unspecified) |  | 70% |  |
| CO/N=C(\C#N)C(=O)NC1=NOC(CO)C1 (stereo unspecified) |  | 70% |  |
| CO/N=C(\C#N)C(=O)Nc1cc(C)cs1 | <70% |  |  |
| CC1(C)CC(NC(=O)/C(C#N)=N/OCC#N)=NO1 | <70% |  |  |
| CO/N=C(\C#N)C(=O)NC1=NOC(CCl)C1 (stereo unspecified) |  |  | Activity [2]: 70% |
| CO/N=C(\C#N)C(=O)NC(=O)OC(C)(C)C |  | 70% |  |
| COCO/N=C(\C#N)C(=O)NC1=NOC(C)(C)C1 |  | 70% |  |
| CO/N=C(\C#N)C(=O)NC1=NOC(C)(CCl)C1 (stereo unspecified) |  |  | Activity [2]: 70% |
| CC1(C)CC(NC(=O)/C(C#N)=N/OCc2ccccc2)=NO1 | <70% |  |  |
| CO/N=C(\C#N)C(=O)NC1=NOC(C(C)(C)C)C1 (stereo unspecified) |  | 70% |  |
| CO/N=C(\C#N)C(=O)NC(=O)ON=C(C)C | 70% |  |  |
| CO/N=C(\C#N)C(=O)NC(=O)NNC(=O)c1ccccc1 | <70% |  |  |
| CO/N=C(\C#N)C(=O)NC1=NOC(c2ccccc2)C1 (stereo unspecified) | <70% |  |  |
| C=CCO/N=C(\C#N)C(=O)NC1=NOC(C)(C)C1 |  | 70% |  |
| CO/N=C(\C#N)C(=O)NC1=NOC(Cc2ccccc2)C1 (stereo unspecified) | <70% |  |  |
| CCCCC1CC(NC(=O)/C(C#N)=N/OC)=NO1 (stereo unspecified) |  | 70% |  |
| CO/N=C(\C#N)C(=O)N(C)C1=NOC(C)(C)C1 | <70% |  |  |
| CO/N=C(\C#N)C(=O)NC1=NOC(C)(C)C1 |  |  | Activity [4]: 70% |
